In patent publication US20210196838A1, “COMPOUNDS AND COMPOSITIONS FOR POTENTIATION OF TLR AGONISTS” (priority 2018, published 2021):

Key:
[1] = system: vesicular stomatitis virus-green fluorescent protein (VSV-GFP); type: cell-based
[2] = system: viral infection; details: free agonist dosing provided by Zhao et. al, 2012; cited from earlier work
[3] = system: rainbow trout gut cells (RT-gut); assay: Uptake of fluorescently labelled poly IC in RT-gut cells; type: cell-based; details: 1 ug/ml, 20 degree treatment, 4 hours

Substance: polyinosinic:polycytidylic acid [poly IC]
- equivalent dose in an antiviral assay [1]: 1000 µg/mL
- dose sufficient to protect mice from viral infection [2]: 20 µg
- intracellular fluorescence [3]: no fluorescence was detected
